Experimental data reported in US20120208809A1, “9H-PYRROLO[2,3-B: 5,4-C'] DIPYRIDINE AZACARBOLINE DERIVATIVES, PREPARATION THEREOF, AND THERAPEUTIC USE THEREOF” (SANOFI, priority 2009, published 2012).

Assays:
[1] = biological target: PLK1 (Homo sapiens, UniProt P53350); assay: Biochemical results, IC50 PLK1
[2] = biological target: T1, Pim-1 (Homo sapiens, UniProt P11309); assay: TR-FRET assay of Pim kinase activity (phosphorylation of Bad Ser112), Pim-1; assay type: biochemical; details: ATP 40 μM, read-out: IC50 Pim1
T1 construct: full-length human recombinant His6-labelled Pim-1, Pim-2 or Pim-3 protein; His6; made in house
T1 sequence (P11309 whole entry): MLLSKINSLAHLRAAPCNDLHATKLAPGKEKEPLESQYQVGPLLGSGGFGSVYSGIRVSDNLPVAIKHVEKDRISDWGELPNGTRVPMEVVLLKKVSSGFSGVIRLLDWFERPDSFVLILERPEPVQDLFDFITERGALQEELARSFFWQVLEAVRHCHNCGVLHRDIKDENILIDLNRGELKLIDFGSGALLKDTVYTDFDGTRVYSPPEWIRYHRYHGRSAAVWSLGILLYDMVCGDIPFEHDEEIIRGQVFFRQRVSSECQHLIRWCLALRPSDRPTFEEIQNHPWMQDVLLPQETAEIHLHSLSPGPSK
Protocol: (§1) In order to determine the inhibition of Pim kinase activity, the compounds of the invention are tested in accordance with a routinely-used in-vitro TR-FRET assay (“Time Resolved-Fluorescence Resonance Energy Transfer”). […] For the assay, the following reagents are used:
(§2) Pim kinase—full-length human recombinant His6-labelled Pim-1, Pim-2 or Pim-3 protein (prepared according to J. Mol. Biol. (2005) 348, 183-193); Bad—full-length human recombinant His6-labelled Bad protein (prepared according to J. Mol. Biol. (2005) 348, 183-193); α-His6-APC—mouse monoclonal antibody conjugated to allophycocyanine SureLight™ directed against the His6 label (Perkin-Elmer, No. AD0059H, Waltham, Mass., United States); α-P˜Bad-Eu—mouse monoclonal antibody (Cell Signaling Technology #9296B, Danvers, Mass., United States) directed against phosphoBad (Ser112) (7E11) labelled on request by Perkin-Elmer with the reagent LANCE™ Eu-W1024.
(§3) The assay is based on the LANCE™ technology from Perkin-Elmer: the Eu-labelled antibody binds to phospho-Ser112 and generates a TR-FRET signal by interaction with the […] antibody directed against His6, bound to the His6 label of Bad. The TR-FRET signal is detected using a SpectraMax M5 plate reader (Molecular Devices) with the following settings: λex=340 nm, λem1=615 nm, λem2=665 nm. The ratio of the fluorescence signal at 665 nm to the fluorescence signal at 615 nm is used as the signal reading for the IC50 (calculations based on the 4-parameter logistic model). The assay is performed in 384-well format; the liquid manipulations are performed using a Beckmann 3000 liquid manipulation station. The test compounds are tested at 10 concentration points in duplicate; the highest concentration of compound is typically equal to 30 μM. The ATP concentration is equal to 40 μM.

[3] = biological target: T2, Pim-3 (Homo sapiens, UniProt Q86V86); assay: TR-FRET assay of Pim kinase activity (phosphorylation of Bad Ser112), Pim-3; assay type: biochemical; details: ATP 40 μM, read-out: IC50 Pim3
T2 construct: full-length human recombinant His6-labelled Pim-1, Pim-2 or Pim-3 protein; His6; made in house
Protocol: as §1, §2, §3

[4] = biological target: T3, Pim-2 (Homo sapiens, UniProt Q9P1W9); assay: TR-FRET assay of Pim kinase activity (phosphorylation of Bad Ser112), Pim-2; assay type: biochemical; details: ATP 40 μM, read-out: IC50 Pim2
T3 construct: full-length human recombinant His6-labelled Pim-1, Pim-2 or Pim-3 protein; His6; made in house
T3 sequence (Q9P1W9 whole entry): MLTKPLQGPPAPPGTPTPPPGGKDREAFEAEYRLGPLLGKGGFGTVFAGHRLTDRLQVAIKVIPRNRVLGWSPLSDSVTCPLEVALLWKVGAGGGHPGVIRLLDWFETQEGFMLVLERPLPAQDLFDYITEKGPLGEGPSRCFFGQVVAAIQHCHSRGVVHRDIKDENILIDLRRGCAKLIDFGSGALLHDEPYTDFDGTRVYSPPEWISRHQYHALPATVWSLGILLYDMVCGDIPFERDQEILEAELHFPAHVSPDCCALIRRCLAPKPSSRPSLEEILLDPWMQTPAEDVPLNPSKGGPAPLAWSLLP
Protocol: as §1, §2, §3

[5] = biological target: CDK1 (Homo sapiens, UniProt P06493); assay: Biochemical results, IC50 CDK1
Sequence of CDK1 (P06493 whole entry, species assumed): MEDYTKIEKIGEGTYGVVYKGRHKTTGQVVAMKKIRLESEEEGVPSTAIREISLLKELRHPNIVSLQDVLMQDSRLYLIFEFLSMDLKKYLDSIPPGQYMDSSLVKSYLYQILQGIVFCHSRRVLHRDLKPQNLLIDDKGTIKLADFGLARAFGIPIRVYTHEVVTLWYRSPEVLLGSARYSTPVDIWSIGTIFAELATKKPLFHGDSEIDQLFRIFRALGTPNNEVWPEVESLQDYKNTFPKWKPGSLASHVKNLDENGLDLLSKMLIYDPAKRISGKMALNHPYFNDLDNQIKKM
Sequence of CDK1 (P14635 whole entry partner, species assumed): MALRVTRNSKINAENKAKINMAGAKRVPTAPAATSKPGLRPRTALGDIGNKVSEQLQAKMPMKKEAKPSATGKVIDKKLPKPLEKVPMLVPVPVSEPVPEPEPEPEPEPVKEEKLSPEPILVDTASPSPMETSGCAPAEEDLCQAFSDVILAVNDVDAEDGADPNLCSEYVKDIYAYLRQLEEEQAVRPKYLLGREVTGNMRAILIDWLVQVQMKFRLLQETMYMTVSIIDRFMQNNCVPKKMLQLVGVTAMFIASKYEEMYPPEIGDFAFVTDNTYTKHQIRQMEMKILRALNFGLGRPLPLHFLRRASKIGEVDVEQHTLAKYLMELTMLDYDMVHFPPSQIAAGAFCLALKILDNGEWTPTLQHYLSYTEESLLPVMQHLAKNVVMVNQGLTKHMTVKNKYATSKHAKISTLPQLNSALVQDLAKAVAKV

Sequence of PLK1 (P53350 whole entry, species assumed): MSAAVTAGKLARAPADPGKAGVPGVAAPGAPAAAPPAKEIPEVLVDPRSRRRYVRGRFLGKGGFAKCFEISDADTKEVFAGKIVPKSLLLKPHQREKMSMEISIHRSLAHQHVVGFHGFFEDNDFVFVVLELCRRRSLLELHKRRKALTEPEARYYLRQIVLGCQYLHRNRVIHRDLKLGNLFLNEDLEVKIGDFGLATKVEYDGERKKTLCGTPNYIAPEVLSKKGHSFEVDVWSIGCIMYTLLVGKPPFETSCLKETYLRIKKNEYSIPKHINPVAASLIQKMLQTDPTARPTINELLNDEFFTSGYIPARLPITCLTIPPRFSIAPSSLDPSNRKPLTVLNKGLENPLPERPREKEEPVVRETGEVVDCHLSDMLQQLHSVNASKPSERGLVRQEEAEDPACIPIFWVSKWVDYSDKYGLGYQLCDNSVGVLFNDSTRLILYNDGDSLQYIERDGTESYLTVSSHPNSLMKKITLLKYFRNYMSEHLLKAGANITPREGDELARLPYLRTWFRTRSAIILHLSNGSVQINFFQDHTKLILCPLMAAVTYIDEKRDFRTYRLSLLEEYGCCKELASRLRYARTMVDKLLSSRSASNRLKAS

SMILES	IC50 [1] [nM]	IC50 [2] [nM]	IC50 [3] [nM]	IC50 [4] [nM]	IC50 [5] [nM]
CS(=O)(=O)NCCNC(=O)c1ccc(-c2c(F)cnc3[nH]c4cnc(-c5cccnc5)cc4c23)cc1 [Example 62, 4-[3-fluoro-6-(pyridin-3-yl)-9H-pyrrolo[2,3-b:5,4-c′]dipyridin-4-yl]-N-{2-[(methylsulfonyl)amino]ethyl}benzamide]	100 to 1000	< 100	< 100	1000 to 5000	100 to 1000
CN1CC2CCN(C(=O)c3ccc(-c4c(F)cnc5[nH]c6cnc(-c7cccnc7)cc6c45)cc3)CC2C1 (stereo not shown) [Example 74, {4-[3-fluoro-6-(pyridin-3-yl)-9H-pyrrolo[2,3-b:5,4-c′]dipyridin-4-yl]phenyl}(2-methyloctahydro-5H-pyrrolo[3,4-c]pyridin-5-yl)methanone]	100 to 1000	< 100	< 100	100 to 1000	1000 to 5000
O=C(NCCCN1CCCC1=O)c1ccc(-c2c(F)cnc3[nH]c4cnc(-c5cccnc5)cc4c23)cc1 [Example 49, 4-[3-fiuoro-6-(pyridin-3-yl)-9H-pyrrolo[2,3-b:5,4-c′]dipyridin-4-yl]-N-[3-(2-oxopyrrolidin-1-yl)propyl]benzamide]	100 to 1000	100 to 1000	100 to 1000	> 5000	1000 to 5000
CC1CCCCN1CCNC(=O)c1ccc(-c2c(F)cnc3[nH]c4cnc(-c5cccnc5)cc4c23)cc1 (stereo not shown) [Example 55, 4-[3-fluoro-6-(pyridin-3-yl)-9H-pyrrolo[2,3-b:5,4-c′]dipyridin-4-yl]-N-[2-(2-methylpiperidin-1-yl)ethyl]benzamide]	100 to 1000	< 100	< 100	100 to 1000	100 to 1000
O=C(NCCNCCO)c1ccc(-c2c(F)cnc3[nH]c4cnc(-c5cccnc5)cc4c23)cc1 [Example 27, 4-[3-fluoro-6-(pyridin-3-yl)-9H-pyrrolo[2,3-b:5,4-c′]dipyridin-4-yl]-N-{2-[(2-hydroxyethyl)amino]ethyl}benzamide]	100 to 1000	< 100	< 100	< 100	1000 to 5000
CCN1CCCC(NC(=O)c2ccc(-c3c(F)cnc4[nH]c5cnc(-c6cccnc6)cc5c34)cc2)C1 (stereo not shown) [Example 54, N-(1-ethylpiperidin-3-yl)-4-[3-fluoro-6-(pyridin-3-yl)-9H-pyrrolo[2,3-b:5,4-c′]dipyridin-4-yl]benzamide]	100 to 1000	< 100	< 100	100 to 1000	100 to 1000
CCN(CC)CCN(C)C(=O)c1ccc(-c2c(F)cnc3[nH]c4cnc(-c5cccnc5)cc4c23)cc1 [Example 71, N-[2-(diethylamino)ethyl]-4-[3-fluoro-6-(pyridin-3-yl)-9H-pyrrolo[2,3-b:5,4-c′]dipyridin-4-yl]-N-methylbenzamide]	1000 to 5000	< 100	< 100	1000 to 5000	1000 to 5000
CN(C)C1CCCN(C(=O)c2ccc(-c3c(F)cnc4[nH]c5cnc(-c6cccnc6)cc5c34)cc2)C1 (stereo not shown) [Example 57, [3-(dimethylamino)piperidin-1-yl]{4-[3-fluoro-6-(pyridin-3-yl)-9H-pyrrolo[2,3-b:5,4-c′]dipyridin-4-yl]phenyl}methanone]	100 to 1000	< 100	< 100	1000 to 5000	100 to 1000
COCCN1CCN(C(=O)c2ccc(-c3c(F)cnc4[nH]c5cnc(-c6cccnc6)cc5c34)cc2)CC1 [Example 72, {4-[3-fluoro-6-(pyridin-3-yl)-9H-pyrrolo[2,3-b:5,4-c′]dipyridin-4-yl]phenyl}[4-(2-methoxyethyl)piperazin-1-yl]methanone]	100 to 1000	100 to 1000	100 to 1000	> 5000	1000 to 5000

The next lines start with the values.

IC50 [1] [nM]	IC50 [2] [nM]	IC50 [3] [nM]	IC50 [4] [nM]	IC50 [5] [nM]	SMILES
100 to 1000	< 100	< 100	100 to 1000	1000 to 5000	CN1CCCC1CCNC(=O)c1ccc(-c2c(F)cnc3[nH]c4cnc(-c5cccnc5)cc4c23)cc1 (stereo not shown) [Example 65, 4-[3-fluoro-6-(pyridin-3-yl)-9H-pyrrolo[2,3-b:5,4-c′]dipyridin-4-yl]-N-[2-(1-methylpyrrolidin-2-yl)ethyl]benzamide]
100 to 1000	100 to 1000	100 to 1000	1000 to 5000	100 to 1000	CC(N)(CNC(=O)c1ccc(-c2c(F)cnc3[nH]c4cnc(-c5cccnc5)cc4c23)cc1)C(F)(F)F (stereo not shown) [Example 91, N-(2-amino-3,3,3-trifluoro-2-methylpropyl)-4-[3-fluoro-6-(pyridin-3-yl)-9H-pyrrolo[2,3-b:5,4-c′]dipyridin-4-yl]benzamide]
< 100	< 100	< 100	100 to 1000	100 to 1000	Cc1n[nH]cc1CNC(=O)c1ccc(-c2c(F)cnc3[nH]c4cnc(-c5cccnc5)cc4c23)cc1 [Example 73, 4-[3-fluoro-6-(pyridin-3-yl)-9H-pyrrolo[2,3-b:5,4-c′]dipyridin-4-yl]-N-[(3-methyl-1H-pyrazol-4-yl)methyl]benzamide]
100 to 1000	< 100	< 100	1000 to 5000	100 to 1000	CN(C)[C@@H]1CCN(C(=O)c2ccc(-c3c(F)cnc4[nH]c5cnc(-c6cccnc6)cc5c34)cc2)C1 [Example 46, [(3R)-3-(dimethylamino)pyrrolidin-1-yl]{4-[3-fluoro-6-(pyridin-3-yl)-9H-pyrrolo[2,3-b:5,4-c′]dipyridin-4-yl]phenyl}methanone]
100 to 1000	< 100	< 100	< 100	100 to 1000	N[C@H]1CCCC[C@@H]1NC(=O)c1ccc(-c2c(F)cnc3[nH]c4cnc(-c5cccnc5)cc4c23)cc1 [Example 84, N-[(1S,2S)-2-aminocyclohexyl]-4-[3-fluoro-6-(pyridin-3-yl)-9H-pyrrolo[2,3-b:5,4-c′]dipyridin-4-yl]benzamide]
100 to 1000	< 100	< 100	< 100	1000 to 5000	CCN(CCN(C)C)C(=O)c1ccc(-c2c(F)cnc3[nH]c4cnc(-c5cccnc5)cc4c23)cc1 [Example 67, N-[2-(dimethylamino)ethyl]-N-ethyl-4-[3-fluoro-6-(pyridin-3-yl)-9H-pyrrolo[2,3-b:5,4-c′]dipyridin-4-yl]benzamide]
100 to 1000	< 100	< 100	< 100	100 to 1000	CN1C[C@@H]2CCN(C(=O)c3ccc(-c4c(F)cnc5[nH]c6cnc(-c7cccnc7)cc6c45)cc3)[C@@H]2C1 [Example 47, {4-[3-fluoro-6-(pyridin-3-yl)-9H-pyrrolo[2,3-b:5,4-c′]dipyridin-4-yl]phenyl}[(3aS,6aS)-5-methylhexahydropyrrolo[3,4-b]pyrrol-1(2H)-yl]methanone]
100 to 1000	< 100	< 100	100 to 1000	100 to 1000	O=C(NCc1ccnc(O)c1)c1ccc(-c2c(F)cnc3[nH]c4cnc(-c5cccnc5)cc4c23)cc1 [Example 82, 4-[3-fluoro-6-(pyridin-3-yl)-9H-pyrrolo[2,3-b:5,4-c′]dipyridin-4-yl]-N-[(2-hydroxypyridin-4-yl)methyl]benzamide]
< 100	100 to 1000	100 to 1000	> 5000	100 to 1000	O=C(NCCNc1ccccc1)c1ccc(-c2c(F)cnc3[nH]c4cnc(-c5cccnc5)cc4c23)cc1 [Example 50, 4-[3-fluoro-6-(pyridin-3-yl)-9H-pyrrolo[2,3-b:5,4-c′]dipyridin-4-yl]-N-[2-(phenylamino)ethyl]benzamide]
< 100	< 100	< 100	100 to 1000	100 to 1000	O=C(NCc1ncc[nH]1)c1ccc(-c2c(F)cnc3[nH]c4cnc(-c5cccnc5)cc4c23)cc1 [Example 76, 4-[3-fluoro-6-(pyridin-3-yl)-9H-pyrrolo[2,3-b:5,4-c′]dipyridin-4-yl]-N-(1H-imidazol-2-ylmethyl)benzamide]
< 100	< 100	100 to 1000	1000 to 5000	100 to 1000	CC(=O)NCCNC(=O)c1ccc(-c2c(F)cnc3[nH]c4cnc(-c5cccnc5)cc4c23)cc1 [Example 48, N-[2-(acetylamino)ethyl]-4-[3-fluoro-6-(pyridin-3-yl)-9H-pyrrolo[2,3-b:5,4-c′]dipyridin-4-yl]benzamide]
